Assay results taken from patent US10093670B2, “Azabenzimidazole derivative having AMPK-activating activity” (Shionogi & Co., Ltd., priority 2011, dated 2018).

Target: T1, human AMPK α1β1γ1 enzyme (Homo sapiens, UniProt Q13131+Q9Y478)
T1 construct: purchased Carna Biosciences, Inc
Experiment: Evaluation of AMPK activator, Test Example 1 (mobility-shift kinase assay, FL-Peptide 7)
Assay type: biochemical
Settings: for EC150 (compound concentration showing 150% relative to the control (100%)): human AMPK α1β1γ1, 25° C., 2 hours, 0.2 mM ATP final; for Emax: read-out: Emax (maximum rate of increase in activity within the measurement range)
Procedure: The obtained liquid was left to stand for 10 minutes.
The obtained liquid was allowed to react at 25° C. for 2 hours, and 10 μl of 20 mM EDTA was then added thereto to stop the reaction.
To detect phosphorylated fluorescent substrates, the reaction liquid was applied to a measuring device, LabChip EZ Reader II manufactured by Caliper Life Science, Inc., for detecting fluorescence by using differences in mobility due to differences in charge. The setting conditions for the device were pressure, −1.5 PSI; upstream voltage, −2250 V; downstream voltage, −400 V; post sample buffer sip time, 40 seconds; final delay, 120 seconds; and peak order, Product First.
A conversion rate was calculated from the peak heights of the resulting substrate and product. The conversion rate when not containing a compound was used as a control, and a concentration dependent curve was made by plotting the rate of increase in activity to the control at each concentration of a compound.

[1] = human AMPK α1β1γ1, relative to control (100%)

T1 sequence (Q13131 10-559 limits assumed): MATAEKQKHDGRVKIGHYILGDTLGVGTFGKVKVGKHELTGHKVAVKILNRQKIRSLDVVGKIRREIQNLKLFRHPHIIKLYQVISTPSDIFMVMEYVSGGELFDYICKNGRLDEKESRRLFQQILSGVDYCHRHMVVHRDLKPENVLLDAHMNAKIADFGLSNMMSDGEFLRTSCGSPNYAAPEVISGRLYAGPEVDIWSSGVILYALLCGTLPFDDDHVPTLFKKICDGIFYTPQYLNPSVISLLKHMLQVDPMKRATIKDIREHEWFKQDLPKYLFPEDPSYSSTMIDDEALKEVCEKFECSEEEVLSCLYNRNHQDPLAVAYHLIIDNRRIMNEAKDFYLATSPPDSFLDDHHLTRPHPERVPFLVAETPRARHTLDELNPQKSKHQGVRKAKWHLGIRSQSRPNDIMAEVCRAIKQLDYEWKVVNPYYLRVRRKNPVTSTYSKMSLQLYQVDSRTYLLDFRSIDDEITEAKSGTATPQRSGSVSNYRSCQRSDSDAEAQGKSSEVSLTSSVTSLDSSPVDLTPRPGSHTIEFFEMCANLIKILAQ
T1 sequence (Q9Y478 whole entry): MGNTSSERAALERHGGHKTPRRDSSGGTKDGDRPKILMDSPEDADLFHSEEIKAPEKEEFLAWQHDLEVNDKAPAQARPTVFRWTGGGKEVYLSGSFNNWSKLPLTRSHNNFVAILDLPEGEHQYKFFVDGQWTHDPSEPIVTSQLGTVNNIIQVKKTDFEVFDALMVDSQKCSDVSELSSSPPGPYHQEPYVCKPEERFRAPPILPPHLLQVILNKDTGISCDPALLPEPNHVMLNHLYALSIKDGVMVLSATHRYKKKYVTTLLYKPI
T1 sequence (P54619 whole entry partner): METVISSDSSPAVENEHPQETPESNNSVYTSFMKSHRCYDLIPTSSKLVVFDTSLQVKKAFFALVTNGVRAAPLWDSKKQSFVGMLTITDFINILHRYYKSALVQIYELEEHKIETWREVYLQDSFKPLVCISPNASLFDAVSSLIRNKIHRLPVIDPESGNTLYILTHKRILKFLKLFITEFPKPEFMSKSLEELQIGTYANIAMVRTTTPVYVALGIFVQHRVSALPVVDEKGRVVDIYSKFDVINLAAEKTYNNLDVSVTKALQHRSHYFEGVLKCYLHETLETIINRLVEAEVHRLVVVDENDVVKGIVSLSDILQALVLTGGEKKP

Row | EC150 (compound concentration showing 150% relative to the control (100%)) [nM] | Emax [1] [%] | Compound | Emax (maximum rate of increase in activity within the measurement range) [1] [%]
1 | 2400 | 193 | CN(C)C(=O)N1CC(Oc2nc3nc(-c4ccc(C5=CCC(C(=O)O)CC5)cc4)c(Cl)cc3[nH]2)C1 (stereo not shown) [Compound I-2-71] | –
2 | 49 | 215 | CC(Oc1nc2nc(-c3ccc(N4CCCC4)cc3)c(Cl)cc2[nH]1)c1noc(=O)[nH]1 (stereo not shown) [Compound I-2-114] | –
3 | 160 | 258 | CC(Oc1nc2nc(-c3ccc(N4CCOCC4)cc3)c(Cl)cc2[nH]1)C(C)(C)C(=O)O (stereo not shown) [Compound I-2-121] | –
4 | 21 | 211 | Clc1cc2[nH]c(OC3CCOCC3)nc2nc1-c1ccc(N2CCOCC2)cc1 [Compound I-3-12] | –
5 | 51 | 261 | O=C(O)C1CCC(Oc2nc3nc(-c4ccc(N5CCOCC5)cc4)c(Cl)cc3[nH]2)C1 (stereo not shown) [Compound I-3-53] | –
6 | 18 | 255 | O=C(O)C[C@H]1CC[C@H](Oc2nc3nc(-c4ccc(C5=CCOCC5)cc4)c(Cl)cc3[nH]2)CC1 [Compound I-2-85] | –
7 | 2300 | 181 | CC(=O)N1CC=C(c2ccc(-c3nc4nc(O[C@H]5CC[C@H](C(=O)O)CC5)[nH]c4cc3Cl)cc2)CC1 [Compound I-2-59] | –
8 | 21 | 287 | CN(C)C(=O)[C@H]1C[C@@H](Oc2nc3nc(-c4ccc(-c5ccc(C(=O)O)cc5)cc4)c(Cl)cc3[nH]2)C1 [Compound I-3-91] | –
9 | 650 | 178 | O=C(O)[C@H]1CC[C@H](Oc2nc3nc(-c4ccc(-c5ccccc5)cc4)c(Cl)cc3[nH]2)CC1 [Compound I-2-30] | –
10 | 130 | 229 | O=C(O)C1(COc2nc3nc(-c4ccc(N5CCOCC5)cc4)c(Cl)cc3[nH]2)CC1 [Compound I-2-116] | –
11 | 200 | 280 | CS(=O)(=O)N1CCC(Oc2nc3nc(-c4ccc(N5CCOCC5)cc4)c(Cl)cc3[nH]2)CC1 [Compound I-1-32] | –
12 | 0.68 | 343 | CC(C)(C(=O)O)[C@H]1CC[C@H](Oc2nc3nc(-c4ccc(-c5ccccc5O)cc4)c(Cl)cc3[nH]2)CC1 [Compound I-3-97] | –
13 | 60 | 259 | CCC(Oc1nc2nc(-c3ccc(N4CCCC4)cc3)c(Cl)cc2[nH]1)c1cc(O)no1 (stereo not shown) [Compound I-3-69] | –
14 | 5.1 | 286 | CC(=O)N1CC=C(c2ccc(-c3nc4nc(OC5CCC(C(C)(C)C(=O)O)CC5)[nH]c4cc3Cl)cc2)CC1 (stereo not shown) [Compound I-3-39] | –
15 | 540 | 228 | CC(Cc1nc2nc(-c3ccc(N4CCOCC4)cc3)c(Cl)cc2[nH]1)C(=O)O (stereo not shown) [Compound I-1-62] | –
16 | 2.3 | 400 | CN1CCc2cc(-c3nc4nc(O[C@H]5CC[C@](O)(C(C)(C)C(=O)O)CC5)[nH]c4cc3Cl)ccc21 [Compound I-3-52] | –
17 | 160 | 283 | O=C(O)CSc1nc2nc(-c3ccc(N4CCOCC4)cc3)c(Cl)cc2[nH]1 [Compound I-1-4] | –
18 | 23 | 303 | CC(=O)N1CC=C(c2ccc(-c3nc4nc(OC5CCC(C(C)(C)CO)CC5)[nH]c4cc3Cl)cc2)CC1 (stereo not shown) [Compound I-3-92] | –
19 | 72 | 189 | O=C(c1ccc(-c2ccc(-c3nc4nc(O[C@H]5CC[C@H](C(=O)O)CC5)[nH]c4cc3Cl)cc2)cc1)N1CCOCC1 [Compound I-2-61] | –
20 | 280 | 228 | CC(C)C(Oc1nc2nc(-c3ccc(N4CCOCC4)cc3)c(Cl)cc2[nH]1)C(=O)O (stereo not shown) [Compound I-3-27] | –
21 | 19 | 271 | CN(C)C(=O)[C@H]1C[C@@H](Oc2nc3nc(-c4ccc(C5=CCC(C(=O)O)CC5)cc4F)c(Cl)cc3[nH]2)C1 (stereo partly shown) [Compound I-3-3] | –
22 | – | 194 | O=C(O)[C@H]1C[C@H](Oc2nc3nc(-c4ccc(N5CCOCC5)cc4)c(Cl)cc3[nH]2)C1 [Compound I-2-118] | –

Row | EC150 (compound concentration showing 150% relative to the control (100%)) [nM] | Emax [1] [%] | Compound | Emax (maximum rate of increase in activity within the measurement range) [1] [%]
23 | 160 | 258 | CC(Sc1nc2nc(-c3ccc(N4CCOCC4)cc3)c(Cl)cc2[nH]1)C(=O)O (stereo not shown) [Compound I-1-39] | –
24 | 18 | 243 | O=C(O)C1([C@]2(O)CC[C@@H](Oc3nc4nc(-c5ccc(N6CCOCC6)cc5)c(Cl)cc4[nH]3)CC2)CCC1 [Compound I-3-123] | –
25 | 310 | 226 | CC(C#N)Oc1nc2nc(-c3ccc(N4CCOCC4)cc3)c(Cl)cc2[nH]1 (stereo not shown) [Compound I-1-27] | –
26 | 24 | 233 | CC(=O)NC1CCN(c2ccc(-c3nc4nc(OC5CCC(C(C)(C)C(=O)O)CC5)[nH]c4cc3Cl)cc2)CC1 (stereo not shown) [Compound I-3-65] | –
27 | 4900 | 174 | O=C1CCC(Oc2nc3nc(-c4ccc(N5CCOCC5)cc4)c(Cl)cc3[nH]2)CN1 (stereo not shown) [Compound I-1-68] | –
28 | 140 | 277 | CC(C)(Sc1nc2nc(-c3ccc(N4CCOCC4)cc3)c(Cl)cc2[nH]1)C(=O)O [Compound I-1-57] | –
29 | 4.9 | 276 | CN(C)C(=O)N1CC=C(c2ccc(-c3nc4nc(O[C@H]5CC[C@H](C(C)(C)C(=O)O)CC5)[nH]c4cc3Cl)cc2)CC1 [Compound I-3-85] | –
30 | 4.5 | 338 | CC(C)(C(=O)O)[C@]1(O)CC[C@@H](Oc2nc3nc(-c4ccc(N5CCCCC5)cc4)c(Cl)cc3[nH]2)CC1 [Compound I-3-51] | –
31 | 650 | 169 | CC(=O)NC1CC=C(c2ccc(-c3nc4nc(O[C@H]5CC[C@H](C(=O)O)CC5)[nH]c4cc3Cl)cc2)CC1 (stereo partly shown) [Compound I-2-58] | –
32 | 230 | 210 | CC(C)(C(N)=O)C1CCC(Oc2nc3nc(-c4ccc(N5CCOCC5)cc4)c(Cl)cc3[nH]2)CC1 (stereo not shown) [Compound I-3-25] | –
33 | 910 | 228 | CC(Oc1nc2nc(-c3ccc(N4CCOCC4)cc3)c(Cl)cc2[nH]1)C(N)=O (stereo not shown) [Compound I-1-37] | –
34 | 6400 | 161 | CC(Oc1nc2nc(-c3ccc(C4=CCC(C(=O)O)CC4)cc3)c(Cl)cc2[nH]1)c1ccccn1 (stereo not shown) [Compound I-2-104] | –
35 | 68 | 221 | O=C(O)C1CC=C(c2ccc(-c3nc4nc(OC5CCOCC5)[nH]c4cc3Cl)cc2)CC1 (stereo not shown) [Compound I-3-26] | –
36 | 3100 | 226 | CN1CCC(Oc2nc3nc(-c4ccc(N5CCOCC5)cc4)c(Cl)cc3[nH]2)CC1 [Compound I-1-25] | –
37 | 9.1 | 311 | CC(C)(C(=O)O)[C@H]1CC[C@H](Oc2nc3nc(-c4ccc(-c5ccc(C(=O)N6CCC(O)CC6)cc5)cc4)c(Cl)cc3[nH]2)CC1 [Compound I-3-106] | –
38 | 61 | 240 | CCC(Oc1nc2nc(-c3ccc(N4CCOCC4)cc3)c(Cl)cc2[nH]1)C(=O)O (stereo not shown) [Compound I-3-11] | –
39 | 250 | 212 | CC(C)(COc1nc2nc(-c3ccc(N4CCOCC4)cc3)c(Cl)cc2[nH]1)C(=O)O [Compound I-2-109] | –
40 | 1.4 | 182 | CN(CCO)C(=O)N1CCC(Oc2nc3nc(-c4ccc(C5=CCC(C(=O)O)CC5)cc4)c(Cl)cc3[nH]2)CC1 (stereo not shown) [Compound I-3-2] | –
41 | 47 | 236 | O=C(O)[C@]1(O)CC[C@@H](Oc2nc3nc(-c4ccc(N5CCOCC5)cc4)c(Cl)cc3[nH]2)CC1 [Compound I-3-75] | –
42 | 1.6 | 300 | CC(C)(C(=O)O)[C@H]1CC[C@H](Oc2nc3nc(-c4ccc(-c5ccc(C(N)=O)cc5)cc4)c(Cl)cc3[nH]2)CC1 [Compound I-3-119] | –
43 | 160 | 228 | CCC(Oc1nc2nc(-c3ccc(C4=CCC(NC(C)=O)CC4)cc3)c(Cl)cc2[nH]1)C(N)=O (stereo not shown) [Compound I-3-50] | –
44 | – | 236 | CC(C)(CO)C1CCC(Oc2nc3nc(-c4ccc(N5CCOCC5)cc4)c(Cl)cc3[nH]2)CC1 (stereo not shown) [Compound I-3-89] | –

Row | Compound | EC150 (compound concentration showing 150% relative to the control (100%)) [nM] | Emax [1] [%] | Emax (maximum rate of increase in activity within the measurement range) [1] [%]
45 | CC(C)(C(=O)O)[C@]1(O)CC[C@@H](Oc2nc3nc(-c4ccc(N5CCOCC5)cc4)c(Cl)cc3[nH]2)CC1 [Compound I-3-83] | 24 | – | 278
